Assay results as given in US20240415914A1, “Water Dispersible Cannabinoid Compositions” (priority 2021, published 2024).

Experiment: Stability of cannabinoid and Vitamin E components of Beverage 1 (AB White) stored at 8° C. and 21-25° C., LCMSMS over 570 days
Type: physicochemical
Conditions: for Stability in AB White, 8° C. (content by LCMSMS): beverage stored at 8° C.; for Stability in AB White, 21-25° C. (content by LCMSMS): beverage stored at 21-25° C.
Method: The LCMSMS was calibrated for 0-1000 ng/ml cannabinoids with the same resin material used in the preparation of the concentrates. At each time period, 100 ml of beverage was diluted with 10 ml of methanol and injected into the LCMSMS for analysis.

With `CCCCCc1cc(O)c2c(c1)OC(C)(CCC=C(C)C)C=C2` (centres unmarked) [CBC, cannabichromene] the “Stability in AB White, 8° C. (content by LCMSMS)” value (day 0) was 0.320 µg/mL, the “Stability in AB White, 8° C. (content by LCMSMS)” value (day 1) was 0.314 µg/mL and the “Stability in AB White, 8° C. (content by LCMSMS)” value (day 2) was 0.315 µg/mL. For the same compound, the “Stability in AB White, 8° C. (content by LCMSMS)” value (day 3) was 0.322 µg/mL, the “Stability in AB White, 8° C. (content by LCMSMS)” value (day 5) was 0.322 µg/mL and the “Stability in AB White, 8° C. (content by LCMSMS)” value (day 8) was 0.318 µg/mL. The “Stability in AB White, 8° C. (content by LCMSMS)” value (day 9) was 0.319 µg/mL, the “Stability in AB White, 8° C. (content by LCMSMS)” value (day 10) was 0.314 µg/mL and the “Stability in AB White, 8° C. (content by LCMSMS)” value (day 11) was 0.314 µg/mL. For the same compound, the “Stability in AB White, 8° C. (content by LCMSMS)” value (day 12) was 0.319 µg/mL, the “Stability in AB White, 8° C. (content by LCMSMS)” value (day 15) was 0.317 µg/mL and the “Stability in AB White, 8° C. (content by LCMSMS)” value (day 16) was 0.320 µg/mL. For the same compound, the “Stability in AB White, 8° C. (content by LCMSMS)” value (day 17) was 0.315 µg/mL, the “Stability in AB White, 8° C. (content by LCMSMS)” value (day 18) was 0.312 µg/mL and the “Stability in AB White, 8° C. (content by LCMSMS)” value (day 19) was 0.317 µg/mL. The “Stability in AB White, 8° C. (content by LCMSMS)” value (day 22) was 0.315 µg/mL, the “Stability in AB White, 8° C. (content by LCMSMS)” value (day 23) was 0.321 µg/mL and the “Stability in AB White, 8° C. (content by LCMSMS)” value (day 24) was 0.316 µg/mL. For the same compound, the “Stability in AB White, 8° C. (content by LCMSMS)” value (day 25) was 0.310 µg/mL, the “Stability in AB White, 8° C. (content by LCMSMS)” value (day 26) was 0.316 µg/mL and the “Stability in AB White, 8° C. (content by LCMSMS)” value (day 29) was 0.321 µg/mL. For the same compound, the “Stability in AB White, 8° C. (content by LCMSMS)” value (day 30) was 0.317 µg/mL, the “Stability in AB White, 8° C. (content by LCMSMS)” value (day 60) was 0.316 µg/mL and the “Stability in AB White, 8° C. (content by LCMSMS)” value (day 90) was 0.318 µg/mL. For the same compound, the “Stability in AB White, 8° C. (content by LCMSMS)” value (day 120) was 0.311 µg/mL, the “Stability in AB White, 8° C. (content by LCMSMS)” value (day 150) was 0.314 µg/mL and the “Stability in AB White, 8° C. (content by LCMSMS)” value (day 180) was 0.319 µg/mL. The “Stability in AB White, 8° C. (content by LCMSMS)” value (day 210) was 0.309 µg/mL, the “Stability in AB White, 8° C. (content by LCMSMS)” value (day 240) was 0.316 µg/mL and the “Stability in AB White, 8° C. (content by LCMSMS)” value (day 270) was 0.316 µg/mL. For the same compound, the “Stability in AB White, 8° C. (content by LCMSMS)” value (day 300) was 0.313 µg/mL, the “Stability in AB White, 8° C. (content by LCMSMS)” value (day 330) was 0.316 µg/mL and the “Stability in AB White, 8° C. (content by LCMSMS)” value (day 360) was 0.306 µg/mL. The “Stability in AB White, 8° C. (content by LCMSMS)” value (day 390) was 0.310 µg/mL, the “Stability in AB White, 8° C. (content by LCMSMS)” value (day 420) was 0.307 µg/mL and the “Stability in AB White, 8° C. (content by LCMSMS)” value (day 450) was 0.312 µg/mL. For the same compound, the “Stability in AB White, 8° C. (content by LCMSMS)” value (day 480) was 0.305 µg/mL, the “Stability in AB White, 8° C. (content by LCMSMS)” value (day 510) was 0.295 µg/mL and the “Stability in AB White, 8° C. (content by LCMSMS)” value (day 540) was 0.299 µg/mL. The “Stability in AB White, 8° C. (content by LCMSMS)” value (day 570) was 0.293 µg/mL, the “Stability in AB White, 21-25° C. (content by LCMSMS)” value (day 0) was 0.320 µg/mL and the “Stability in AB White, 21-25° C. (content by LCMSMS)” value (day 1) was 0.313 µg/mL. For the same compound, the “Stability in AB White, 21-25° C. (content by LCMSMS)” value (day 2) was 0.318 µg/mL, the “Stability in AB White, 21-25° C. (content by LCMSMS)” value (day 3) was 0.311 µg/mL and the “Stability in AB White, 21-25° C. (content by LCMSMS)” value (day 5) was 0.323 µg/mL. The “Stability in AB White, 21-25° C. (content by LCMSMS)” value (day 8) was 0.319 µg/mL, the “Stability in AB White, 21-25° C. (content by LCMSMS)” value (day 9) was 0.307 µg/mL and the “Stability in AB White, 21-25° C. (content by LCMSMS)” value (day 10) was 0.312 µg/mL. For the same compound, the “Stability in AB White, 21-25° C. (content by LCMSMS)” value (day 11) was 0.311 µg/mL, the “Stability in AB White, 21-25° C. (content by LCMSMS)” value (day 12) was 0.316 µg/mL and the “Stability in AB White, 21-25° C. (content by LCMSMS)” value (day 15) was 0.311 µg/mL. The “Stability in AB White, 21-25° C. (content by LCMSMS)” value (day 16) was 0.321 µg/mL, the “Stability in AB White, 21-25° C. (content by LCMSMS)” value (day 17) was 0.323 µg/mL and the “Stability in AB White, 21-25° C. (content by LCMSMS)” value (day 18) was 0.313 µg/mL. The “Stability in AB White, 21-25° C. (content by LCMSMS)” value (day 19) was 0.316 µg/mL, the “Stability in AB White, 21-25° C. (content by LCMSMS)” value (day 22) was 0.322 µg/mL and the “Stability in AB White, 21-25° C. (content by LCMSMS)” value (day 23) was 0.316 µg/mL. For the same compound, the “Stability in AB White, 21-25° C. (content by LCMSMS)” value (day 24) was 0.308 µg/mL, the “Stability in AB White, 21-25° C. (content by LCMSMS)” value (day 25) was 0.310 µg/mL and the “Stability in AB White, 21-25° C. (content by LCMSMS)” value (day 26) was 0.308 µg/mL. For the same compound, the “Stability in AB White, 21-25° C. (content by LCMSMS)” value (day 29) was 0.317 µg/mL, the “Stability in AB White, 21-25° C. (content by LCMSMS)” value (day 30) was 0.317 µg/mL and the “Stability in AB White, 21-25° C. (content by LCMSMS)” value (day 60) was 0.306 µg/mL. The “Stability in AB White, 21-25° C. (content by LCMSMS)” value (day 90) was 0.305 µg/mL, the “Stability in AB White, 21-25° C. (content by LCMSMS)” value (day 120) was 0.318 µg/mL and the “Stability in AB White, 21-25° C. (content by LCMSMS)” value (day 150) was 0.312 µg/mL. For the same compound, the “Stability in AB White, 21-25° C. (content by LCMSMS)” value (day 180) was 0.315 µg/mL, the “Stability in AB White, 21-25° C. (content by LCMSMS)” value (day 210) was 0.307 µg/mL and the “Stability in AB White, 21-25° C. (content by LCMSMS)” value (day 240) was 0.304 µg/mL. The “Stability in AB White, 21-25° C. (content by LCMSMS)” value (day 270) was 0.316 µg/mL, the “Stability in AB White, 21-25° C. (content by LCMSMS)” value (day 300) was 0.312 µg/mL and the “Stability in AB White, 21-25° C. (content by LCMSMS)” value (day 330) was 0.312 µg/mL. For the same compound, the “Stability in AB White, 21-25° C. (content by LCMSMS)” value (day 360) was 0.310 µg/mL, the “Stability in AB White, 21-25° C. (content by LCMSMS)” value (day 390) was 0.303 µg/mL and the “Stability in AB White, 21-25° C. (content by LCMSMS)” value (day 420) was 0.312 µg/mL. The “Stability in AB White, 21-25° C. (content by LCMSMS)” value (day 450) was 0.310 µg/mL, the “Stability in AB White, 21-25° C. (content by LCMSMS)” value (day 480) was 0.294 µg/mL and the “Stability in AB White, 21-25° C. (content by LCMSMS)” value (day 510) was 0.293 µg/mL. The “Stability in AB White, 21-25° C. (content by LCMSMS)” value (day 540) was 0.294 µg/mL and the “Stability in AB White, 21-25° C. (content by LCMSMS)” value (day 570) was 0.295 µg/mL.
